Measured values taken from the supplement of paper PMC11451515.

What was measured:
Test in all cases: AUC of viability dose-response curve (% viability x log10 dose units); higher = less sensitive
Details in all cases: 48 h
NOMO1 = test system: NOMO1
Outline: (§1)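 Leukemia cells adapted to each medium were seeded at 500 or 1000 cells/well in 1536-well plates and dosed with library compounds in DMSO at 11 threefold doses from 47 μM to 0.79 nM for 48 h at 37°C. CellTiter-Glo One luminescence was normalised per plate to DMSO and cell-free wells, then fitted with a four-parameter log-logistic model over log10 doses. Area under the curve was taken from this fit by the trapezoidal rule, with curves above full viability scaled and curves failing quality control removed.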

P12-Ichikawa = test system: P12-Ichikawa
Outline: as §1

SEM cells = test system: SEM cells
Outline: as §1

[1] = RPMI 5 mM glucose + 10% dialyzed FBS

Q: For C[C@@H]1O[C@@H](O[C@H]2C[C@@H](O)[C@]3(CO)[C@H]4[C@H](O)C[C@]5(C)[C@@H](C6=CC(=O)OC6)CC[C@]5(O)[C@@H]4CC[C@]3(O)C2)[C@H](O)[C@H](O)[C@H]1O, which “AUC of viability dose-response curve” value (NOMO1; HPLM + 10% dialyzed FBS) is on record?
A: The value was 197.

Q: And the “AUC of viability dose-response curve” value (NOMO1; RPMI 5 mM glucose + 10% FBS)?
A: Its value is 248.

Q: What about the “AUC of viability dose-response curve” value (NOMO1; [1]) of the same compound?
A: Its value is 227.

Q: What about the “AUC of viability dose-response curve” value (P12-Ichikawa; HPLM + 10% dialyzed FBS) of the same compound?
A: The value was 203.

Q: And the “AUC of viability dose-response curve” value (P12-Ichikawa; RPMI 5 mM glucose + 10% FBS)?
A: Its value is 235.

Q: What about the “AUC of viability dose-response curve” value (P12-Ichikawa; [1]) of the same compound?
A: Its value is 211.

Q: What about the “AUC of viability dose-response curve” value (SEM cells; HPLM + 10% dialyzed FBS) of the same compound?
A: Its value is 179.

Q: And the “AUC of viability dose-response curve” value (SEM cells; RPMI 5 mM glucose + 10% FBS)?
A: Its value is 234.

Q: What about the “AUC of viability dose-response curve” value (SEM cells; [1]) of the same compound?
A: Its value is 216.

Q: Which “AUC of viability dose-response curve” value (NOMO1; HPLM + 10% dialyzed FBS) does the source give for COc1cc2ncn(-c3cc(OCc4ccccc4[S+](C)(=O)[O-])c(C#N)s3)c2cc1OC here?
A: Its value is 443.

Q: And the “AUC of viability dose-response curve” value (NOMO1; RPMI 5 mM glucose + 10% FBS)?
A: Its value is 435.

Q: What about the “AUC of viability dose-response curve” value (NOMO1; [1]) of the same compound?
A: The value was 457.

Q: What about the “AUC of viability dose-response curve” value (P12-Ichikawa; HPLM + 10% dialyzed FBS) of the same compound?
A: Its value is 450.

Q: And the “AUC of viability dose-response curve” value (P12-Ichikawa; RPMI 5 mM glucose + 10% FBS)?
A: Its value is 450.

Q: And the “AUC of viability dose-response curve” value (P12-Ichikawa; [1])?
A: Its value is 428.

Q: And the “AUC of viability dose-response curve” value (SEM cells; HPLM + 10% dialyzed FBS)?
A: The value was 457.

Q: And the “AUC of viability dose-response curve” value (SEM cells; RPMI 5 mM glucose + 10% FBS)?
A: Its value is 461.

Q: And the “AUC of viability dose-response curve” value (SEM cells; [1])?
A: Its value is 470.

Q: How did the “AUC of viability dose-response curve” value (NOMO1; HPLM + 10% dialyzed FBS) turn out when COc1ccc(OC)c(-c2nnc3ccc(-c4ccc(OC)c(O[C@@H]5CCOC5)c4)nn23)c1 was run?
A: Its value is 463.

Q: And the “AUC of viability dose-response curve” value (NOMO1; RPMI 5 mM glucose + 10% FBS)?
A: The value was 477.

Q: What about the “AUC of viability dose-response curve” value (NOMO1; [1]) of the same compound?
A: Its value is 469.

Q: And the “AUC of viability dose-response curve” value (P12-Ichikawa; HPLM + 10% dialyzed FBS)?
A: The value was 473.

Q: And the “AUC of viability dose-response curve” value (P12-Ichikawa; RPMI 5 mM glucose + 10% FBS)?
A: The value was 458.

Q: And the “AUC of viability dose-response curve” value (P12-Ichikawa; [1])?
A: The value was 466.

Q: And the “AUC of viability dose-response curve” value (SEM cells; HPLM + 10% dialyzed FBS)?
A: The value was 477.

Q: And the “AUC of viability dose-response curve” value (SEM cells; RPMI 5 mM glucose + 10% FBS)?
A: The value was 470.

Q: And the “AUC of viability dose-response curve” value (SEM cells; [1])?
A: The value was 473.

Q: Which “AUC of viability dose-response curve” value (NOMO1; HPLM + 10% dialyzed FBS) does the source give for C=C1C(=O)OC(CCCCCCCC)C1C(=O)O (configuration not stated) here?
A: The value was 474.

Q: And the “AUC of viability dose-response curve” value (NOMO1; RPMI 5 mM glucose + 10% FBS)?
A: The value was 462.

Q: What about the “AUC of viability dose-response curve” value (NOMO1; [1]) of the same compound?
A: Its value is 464.

Q: And the “AUC of viability dose-response curve” value (P12-Ichikawa; HPLM + 10% dialyzed FBS)?
A: The value was 468.

Q: What about the “AUC of viability dose-response curve” value (P12-Ichikawa; RPMI 5 mM glucose + 10% FBS) of the same compound?
A: The value was 467.

Q: What about the “AUC of viability dose-response curve” value (P12-Ichikawa; [1]) of the same compound?
A: Its value is 468.

Q: And the “AUC of viability dose-response curve” value (SEM cells; HPLM + 10% dialyzed FBS)?
A: Its value is 461.

Q: What about the “AUC of viability dose-response curve” value (SEM cells; RPMI 5 mM glucose + 10% FBS) of the same compound?
A: The value was 457.

Q: What about the “AUC of viability dose-response curve” value (SEM cells; [1]) of the same compound?
A: The value was 468.

Q: With N[C@H]2CN(CC12CC1)c3c(F)cc4c(c3Cl)[N@@](C=C(C4=O)C(=O)O)C5C[C@H]5F (some centres not stated) as the compound, how does the “AUC of viability dose-response curve” value (NOMO1; HPLM + 10% dialyzed FBS) read?
A: The value was 420.

Q: What about the “AUC of viability dose-response curve” value (NOMO1; RPMI 5 mM glucose + 10% FBS) of the same compound?
A: The value was 387.

Q: And the “AUC of viability dose-response curve” value (NOMO1; [1])?
A: Its value is 413.

Q: What about the “AUC of viability dose-response curve” value (P12-Ichikawa; HPLM + 10% dialyzed FBS) of the same compound?
A: Its value is 439.

Q: What about the “AUC of viability dose-response curve” value (P12-Ichikawa; RPMI 5 mM glucose + 10% FBS) of the same compound?
A: The value was 417.

Q: What about the “AUC of viability dose-response curve” value (P12-Ichikawa; [1]) of the same compound?
A: The value was 395.

Q: And the “AUC of viability dose-response curve” value (SEM cells; HPLM + 10% dialyzed FBS)?
A: The value was 412.

Q: And the “AUC of viability dose-response curve” value (SEM cells; RPMI 5 mM glucose + 10% FBS)?
A: Its value is 431.

Q: And the “AUC of viability dose-response curve” value (SEM cells; [1])?
A: The value was 398.

Q: For O=C(CCCCCCC(=O)Nc1ccc([C@H]2O[C@@H](CSc3nc(-c4ccccc4)c(-c4ccccc4)o3)C[C@@H](c3ccc(CO)cc3)O2)cc1)NO, which “AUC of viability dose-response curve” value (NOMO1; HPLM + 10% dialyzed FBS) is on record?
A: Its value is 405.

Q: And the “AUC of viability dose-response curve” value (NOMO1; RPMI 5 mM glucose + 10% FBS)?
A: Its value is 406.

Q: And the “AUC of viability dose-response curve” value (NOMO1; [1])?
A: Its value is 403.

Q: What about the “AUC of viability dose-response curve” value (P12-Ichikawa; HPLM + 10% dialyzed FBS) of the same compound?
A: The value was 378.

Q: And the “AUC of viability dose-response curve” value (P12-Ichikawa; RPMI 5 mM glucose + 10% FBS)?
A: The value was 376.

Q: What about the “AUC of viability dose-response curve” value (P12-Ichikawa; [1]) of the same compound?
A: Its value is 362.

Q: And the “AUC of viability dose-response curve” value (SEM cells; HPLM + 10% dialyzed FBS)?
A: The value was 398.

Q: And the “AUC of viability dose-response curve” value (SEM cells; RPMI 5 mM glucose + 10% FBS)?
A: The value was 397.

Q: What about the “AUC of viability dose-response curve” value (SEM cells; [1]) of the same compound?
A: The value was 391.

Q: Which results are given for O=C(CCCCCCC(=O)Nc1cccnc1)NO?
A: AUC of viability dose-response curve (NOMO1; HPLM + 10% dialyzed FBS): 435; AUC of viability dose-response curve (NOMO1; RPMI 5 mM glucose + 10% FBS): 399; AUC of viability dose-response curve (NOMO1; [1]): 432; AUC of viability dose-response curve (P12-Ichikawa; HPLM + 10% dialyzed FBS): 400; AUC of viability dose-response curve (P12-Ichikawa; RPMI 5 mM glucose + 10% FBS): 374; AUC of viability dose-response curve (P12-Ichikawa; [1]): 368; AUC of viability dose-response curve (SEM cells; HPLM + 10% dialyzed FBS): 401; AUC of viability dose-response curve (SEM cells; RPMI 5 mM glucose + 10% FBS): 402; AUC of viability dose-response curve (SEM cells; [1]): 375

Q: Which “AUC of viability dose-response curve” value (NOMO1; HPLM + 10% dialyzed FBS) does the source give for O=C(CS(=O)Cc1ccco1)NC/C=C\COc1cc(CN2CCCCC2)ccn1 (configuration not stated) here?
A: The value was 464.

Q: And the “AUC of viability dose-response curve” value (NOMO1; RPMI 5 mM glucose + 10% FBS)?
A: The value was 440.

Q: What about the “AUC of viability dose-response curve” value (NOMO1; [1]) of the same compound?
A: Its value is 474.

Q: And the “AUC of viability dose-response curve” value (P12-Ichikawa; HPLM + 10% dialyzed FBS)?
A: The value was 459.

Q: What about the “AUC of viability dose-response curve” value (P12-Ichikawa; RPMI 5 mM glucose + 10% FBS) of the same compound?
A: The value was 463.

Q: What about the “AUC of viability dose-response curve” value (P12-Ichikawa; [1]) of the same compound?
A: The value was 450.

Q: And the “AUC of viability dose-response curve” value (SEM cells; HPLM + 10% dialyzed FBS)?
A: The value was 455.

Q: What about the “AUC of viability dose-response curve” value (SEM cells; RPMI 5 mM glucose + 10% FBS) of the same compound?
A: The value was 452.

Q: What about the “AUC of viability dose-response curve” value (SEM cells; [1]) of the same compound?
A: The value was 446.
